Measurements: article PMC12684298, “The Parkinson's Disease Drug Tolcapone and Analogues are Potent Glycomimetic Lectin Inhibitors of Pseudomonas aeruginosa LecA” (Angewandte Chemie (International Ed. in English), 2025)

Legend:
[1] = target: T1, LecA (Pseudomonas aeruginosa, UniProt Q05097); assay: biochemical; assay type: binding
T1 construct: made in house; host or cells: E. coli BL21 (DE3), plasmid pET25pa11
Method: Therefore, we focused our attention on commercially available nitro‐catechols. Prominent derivatives are inhibitors of the enzyme catechol‐O‐methyltransferase (COMT) and approved drugs for the treatment of Parkinson's disease. Four commercial COMT inhibitors were thus evaluated in a previously reported competitive binding assay based on fluorescence polarisation (FP, Table 1, Figure 1).^[ [32] ^]
The competitive binding assay was performed in analogy to Joachim et al.^[2] 10 µL of a solution containing LecA (40 µM) and sulfo-Cy5-Gal (20 nM, synthesis described in Kuhaudomlarp, Siebs et al.^[5]) in TBS/Ca buffer (20 mM Tris, 147 mM NaCl, 2.6 mM KCl at pH 7.4 supplemented with 1 mM CaCl2) were distributed in into wells of a black 384-well microtiter plate (Greiner Bio-One, Germany, cat no 781900). Then, 10 µL of serial dilutions of compounds (3 mM to 1.5 µM, dilution factor 0.5) in TBS/Ca with 40% DMSO were added in technical triplicates. Final concentrations after mixing were the following: 1.5 mM – 0.73 µM compound, 20 µM LecA, 10 nM sulfo-Cy5-Gal and 20% DMSO. The plate was sealed (EASYseal, Greiner Bio-One, cat no 676001), briefly centrifuged and incubated at room temperature in the dark under shaking conditions. Fluorescence intensity was measured after 1 h and 4 h using a PheraStar FS plate reader (BMG Labtech GmbH, Germany) with spectral filters for excitation at 590 nm and emission at 675 nm and polarization was calculated after blank values of 20 µM LecA in TBS/Ca buffer with 20% DMSO were subtracted from the test compounds. The data were analysed using the four-parameter variable slope model of the MARS Data Analysis software. The top and bottom plateau were assigned based on the control compound methyl α-d-galactoside and the data was reanalysed with these fixed values. If not mentioned otherwise, the experiment was repeated at least three times for each compound and the average and standard deviation are given. In case Triton X-100 was used it was added to the TBS/Ca buffer before the assay.

[2] = target: T1, LecA; assay: Library screening using the FP competitive binding assay (three concentrations); details: read-out: Activity [%] (% inhibition relative to 500 µM pNPGal)
Excerpt: Next, we screened a library of catechols from F. Hoffmann‐La Roche, the developer of Tolcapone, in the competitive binding assay to establish a structure–activity relationship. To this end, two sets of compounds with a molecular cut‐off of 500 Da were chosen: a first set of 342 compounds contained derivatives of Tolcapone, while a second set of 3222 compounds comprised catechols covering a larger chemical space. […] Tests were run in a 384‐well‐plate format at three concentrations (first set at 125, 32, and 4 µM, second set at 100, 25, and 3 µM) in presence of 10% DMSO and 250 µM 2‐mercaptoethanol to prevent interference by a potential unspecific reactivity of electron‐rich catechols as established earlier.^[ [30] ^]
The screening followed the same assay by Joachim et al.^[2] as described above. Compounds in DMSO (1 µL with the appropriate concentration) were plated using a robot into black 384-well microtiter plates (Greiner Bio-One, Germany, cat no 781900) by the Roche compound handling facility at four replicates per concentration and compound. A mixture of LecA, sulfo-Cy5-Gal and 2-mercaptoethanol in TBS/Ca (20 mM Tris, 147 mM NaCl, 2.6 mM KCl at pH 7.4 supplemented with 1 mM CaCl2) with DMSO was added at HIPS. Final concentrations in both screening rounds were the following: 5 µM LecA, 250 µM 2-mercaptoethanol, 10 nM sulfo-Cy5-Gal and 10% DMSO. Final concentrations of the 342 compounds of the first screening round were 125 µM, 32 µM and 4 µM. The 3222 compounds of the second screening round were tested at final concentrations of 100 µM, 25 µM and 3 µM. The plate was sealed (EASYseal, Greiner Bio-One, cat no 676001), briefly centrifuged and incubated at room temperature in the dark under shaking conditions. Fluorescence intensities were measured after 1 h and 24 h using a PheraStar FS plate reader (BMG Labtech GmbH, Germany) with spectral filters for excitation at 590 nm and emission at 675 nm and polarization was calculated after blank values of 5 µM LecA in TBS/Ca buffer with 250 µM 2-mercaptoethanol and 10% DMSO were subtracted from the test compounds. The data were analysed using the MARS Data Analysis software. […] All stated values are the average including the standard deviation based on three replicates for 100 µM and four replicates in the case of compounds at 125 µM.

[3] = IC50, extended dose-response analysis, 20% DMSO, no 2-mercaptoethanol, three experiments
[4] = IC50 in presence of 0.01% Triton X-100, FP assay, 0.01% Triton X-100, one replicate
[5] = LecA inhibition, competitive binding assay (FP), tested up to 1.5 mM, n ≥ 2
[6] = IC50 in presence of 0.057% Triton X-100, FP assay, 0.057% Triton X-100, one replicate

T1 sequence (Q05097 whole entry): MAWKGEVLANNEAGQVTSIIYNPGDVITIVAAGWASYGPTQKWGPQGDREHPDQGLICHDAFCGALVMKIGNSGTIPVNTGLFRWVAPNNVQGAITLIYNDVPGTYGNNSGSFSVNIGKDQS

Row | SMILES | IC50 [1, 3] [µM] | other results
1 | N#Cc1ccccc1C(=O)c1cc(O)c(O)c([N+](=O)[O-])c1 [RO0413268] | 214 | 
2 | O=C(OCCC(O)C(F)(F)F)c1cccc(C(=O)c2cc(O)c(O)c([N+](=O)[O-])c2)c1 (stereo not shown) [RO0622624] | 135 | 
3 | CCCNC(=O)c1ccc(C(=O)c2cc(O)c(O)c([N+](=O)[O-])c2)cc1 [RO0620570] | 347 | 
4 | O=C(c1cc(O)c(O)c([N+](=O)[O-])c1)c1ncc[nH]1 [compound 26] |  | inhibition at 100 µM [2]: 16.8 ± 3.8%
5 | Cc1ccc(C(=O)c2cc(O)c(O)c(C(N)=O)c2)cc1 [compound 11] |  | inhibition at 100 µM [2]: 21.8 ± 3.4%
6 | Cc1ccc(C(=O)C(=O)c2cc(O)c(O)c([N+](=O)[O-])c2)cc1 [RO0619291] | 128 | 
7 | CCN(CC)C(=O)c1cccc(C(=O)c2cc(O)c(O)c([N+](=O)[O-])c2)c1 [RO0621115] | 229 | 
8 | O=C(c1ccncc1)c1cc(O)c(O)c([N+](=O)[O-])c1 [RO0403499] | 597 | 
9 | O=C(C(=O)c1cc(O)c(O)c([N+](=O)[O-])c1)c1ccccc1 [RO0621161] | 153 | 
10 | Cc1c(Cl)c(C)[n+]([O-])c(Cl)c1-c1noc(-c2cc(O)c(O)c([N+](=O)[O-])c2)n1 [compound 3, Opicapone, reference compound] |  | IC50 ([1]; IC50, LecA inhibition, competitive binding assay (FP), tested up to 1.5 mM, n ≥ 2): 842 ± 134 µM
11 | Cc1c(C(=O)c2cc(O)c(O)c([N+](=O)[O-])c2)[nH]c2ccc(Br)cc12 [compound 30] | 43 | IC50 [1, 4]: 59 µM
12 | CCCCOC(=O)c1cccc(C(=O)c2cc(O)c(O)c([N+](=O)[O-])c2)c1 [RO0626778] | 117 | 
13 | O=C(NCc1ccccc1)c1cc(O)c(O)c([N+](=O)[O-])c1 [compound 23] |  | inhibition at 100 µM [2]: 26.6 ± 4.2%
14 | CCCCNC(=O)c1cccc(C(=O)c2cc(O)c(O)c([N+](=O)[O-])c2)c1 [RO0621006] | 283 | 
15 | O=C(NC12CC3CC(CC(C3)C1)C2)c1cc(O)c(O)c([N+](=O)[O-])c1 [compound 24] |  | inhibition at 100 µM [2]: 10 ± 3.6%
16 | CCN(CC)C(=O)/C(C#N)=C/c1cc(O)c(O)c([N+](=O)[O-])c1 [compound 2, Entacapone, reference compound] |  | IC50 [1, 5]: no inhibition; IC50 ([1]; LecA inhibition, competitive binding assay (FP), tested up to 1.5 mM, n ≥ 2, listed as Entacapone): inactive
17 | COC(=O)/C=C/c1cccc(C(=O)c2cc(O)c(O)c([N+](=O)[O-])c2)c1 [RO0619973] | 258 | 
18 | CCCN(CCC)C(=O)c1c(Br)cc(O)c(O)c1[N+](=O)[O-] [RO0627603] | 285 | 
19 | CCOC(=O)c1cccc(C(=O)c2cc(O)c(O)c([N+](=O)[O-])c2)c1 [RO0620809] | 244 | 
20 | CC(C)c1ccc(C(=O)c2cc(O)c(O)c([N+](=O)[O-])c2)cc1 [RO0615928] | 129 | 
21 | O=C(c1cccc(CO)c1)c1cc(O)c(O)c([N+](=O)[O-])c1 [RO0623430] | 446 | 
22 | C=CCOC(=O)c1ccc(C(=O)c2cc(O)c(O)c([N+](=O)[O-])c2)cc1 [compound 32] | 56 | IC50 [1, 4]: 49 µM; IC50 [1, 6]: 50 µM
23 | O=C(NC1CCCCC1)c1cccc(C(=O)c2cc(O)c(O)c([N+](=O)[O-])c2)c1 [RO0626783] | 430 | 
24 | CC(C)OC(=O)c1cccc(C(=O)c2cc(O)c(O)c([N+](=O)[O-])c2)c1 [RO0621109] | 156 | 
25 | CC(C)(C)COC(=O)c1cccc(C(=O)c2cc(O)c(O)c([N+](=O)[O-])c2)c1 [RO0626777] | 206 | 
26 | Cc1ccccc1C(=O)c1cc(O)c(O)c([N+](=O)[O-])c1 [RO0412734] | 116 | 

Row | SMILES | IC50 [1, 3] [µM] | other results
27 | O=C(c1ccc(F)cc1)c1cc(O)c(O)c([N+](=O)[O-])c1 [RO0407028] | 370 | 
28 | O=C(NCc1ccccc1)c1cccc(C(=O)c2cc(O)c(O)c([N+](=O)[O-])c2)c1 [RO0626786] | 356 | 
29 | O=C(c1cc(O)c(O)c([N+](=O)[O-])c1)c1ccccc1Cl [RO0413301] | 108 | 
30 | O=C(c1cc(O)c(O)c([N+](=O)[O-])c1)c1ccnc2ccccc12 [RO0405919] | 174 | 
31 | Cc1ccc(C(=O)c2ccc(O)c(O)c2[N+](=O)[O-])cc1 [RO0614977] | 154 | 
32 | O=C(OCc1ccccc1)c1ccc(C(=O)c2cc(O)c(O)c([N+](=O)[O-])c2)cc1 [compound 31] | 47 | IC50 [1, 4]: 17 µM; IC50 [1, 6]: 16 µM
33 | O=[N+]([O-])c1cc(-c2cn3ncsc3n2)cc(O)c1O [RO0199733] | > 1500 | 
34 | CCCN(CCC)C(=O)c1cccc(C(=O)c2cc(O)c(O)c([N+](=O)[O-])c2)c1 [RO0621116] | 173 | 
35 | COC(=O)c1ccc(C(=O)c2cc(O)c(O)c([N+](=O)[O-])c2)cc1 [RO0621265] | 330 | 
36 | O=C(c1cc(O)c(O)c([N+](=O)[O-])c1)c1cncc2ccccc12 [RO0408176] | 449 | 
37 | O=C(c1cccc(F)c1)c1cc(O)c(O)c([N+](=O)[O-])c1 [RO0412713] | 675 | 
38 | CCN(CC)C(=O)c1ccc(C(=O)c2cc(O)c(O)c([N+](=O)[O-])c2)cc1 [RO0620573] | 438 | 
39 | O=C(NCC1CC1)c1cccc(C(=O)c2cc(O)c(O)c([N+](=O)[O-])c2)c1 [RO0621004] | 363 | 
40 | CC(=O)C(=Cc1cc(O)c(O)c([N+](=O)[O-])c1)C(C)=O [compound 1, Nitecapone, reference compound] |  | IC50 [1, 5]: no inhibition; IC50 ([1]; LecA inhibition, competitive binding assay (FP), tested up to 1.5 mM, n ≥ 2, listed as Nitecapone): inactive
41 | O=C(c1cc(O)c(O)c([N+](=O)[O-])c1)c1ccccc1C(F)(F)F [RO0413162] | 128 | 
42 | C=CCOC(=O)c1cccc(C(=O)c2cc(O)c(O)c([N+](=O)[O-])c2)c1 [RO0620810] | 139 | 
43 | CC(O)CCOC(=O)c1cccc(C(=O)c2cc(O)c(O)c([N+](=O)[O-])c2)c1 (stereo not shown) [RO0621239] | 192 | 
44 | CC(C)(C)c1ccc(C(=O)c2cc(O)c(O)c([N+](=O)[O-])c2)cc1 [RO0615662] | 144 | 
45 | CCCCCOC(=O)c1ccc(C(=O)c2cc(O)c(O)c([N+](=O)[O-])c2)cc1 [compound 35] | 72 | IC50 [1, 6]: 66 µM
46 | Cc1ccc(C(=O)c2cc(O)c(O)c(S(=O)(=O)C(F)(F)F)c2)cc1 [RO0616411] | 338 | 
47 | COCCOCc1ccc(C(=O)c2cc(O)c(O)c([N+](=O)[O-])c2)cc1 [RO0624122] | 289 | 
48 | CCCCCOC(=O)c1cccc(C(=O)c2cc(O)c(O)c([N+](=O)[O-])c2)c1 [compound 34] | 63 | IC50 [1, 4]: 88 µM; IC50 [1, 6]: 61 µM
49 | COC(=O)c1cccc(C(=O)c2cc(O)c(O)c([N+](=O)[O-])c2)c1 [RO0620808] | 279 | 
50 | CCCNC(=O)c1cccc(C(=O)c2cc(O)c(O)c([N+](=O)[O-])c2)c1 [RO0621005] | 422 | 
51 | Cc1c(C(=O)c2cc(O)c(O)c([N+](=O)[O-])c2)[nH]c2ccccc12 [RO0403335] | 434 | 
